Like-named read-outs stand apart in the source and are kept apart here.
Key:
[1] = molecular target: human BACE1 (Homo sapiens, UniProt P56817); experiment: Fluorescent kinetic assay, BACE-1 (Example 114); type: biochemical
Protocol: Evaluation of BACE-1 Binding Affinity of Test Compounds
Fluorescent Kinetic Assays
Dilution and mixing steps: total reaction volume: 100 μL
100 μM substrate dilution in 1×PBS was prepared, and
Fluorescence Readings: Readings at λex 320 nm and εem 420 nm are taken every 40 sec for 30 min at room temperature and the linear slope for substrate cleavage rate (vi) determined.

[2] = 10 nM human BACE1, 25 μM substrate WABC-6, 50 mM Na-Acetate pH 4.5, room temperature, read-out: BACE-1 (IC50 μM)

Sequence of human BACE1 (P56817 46-501): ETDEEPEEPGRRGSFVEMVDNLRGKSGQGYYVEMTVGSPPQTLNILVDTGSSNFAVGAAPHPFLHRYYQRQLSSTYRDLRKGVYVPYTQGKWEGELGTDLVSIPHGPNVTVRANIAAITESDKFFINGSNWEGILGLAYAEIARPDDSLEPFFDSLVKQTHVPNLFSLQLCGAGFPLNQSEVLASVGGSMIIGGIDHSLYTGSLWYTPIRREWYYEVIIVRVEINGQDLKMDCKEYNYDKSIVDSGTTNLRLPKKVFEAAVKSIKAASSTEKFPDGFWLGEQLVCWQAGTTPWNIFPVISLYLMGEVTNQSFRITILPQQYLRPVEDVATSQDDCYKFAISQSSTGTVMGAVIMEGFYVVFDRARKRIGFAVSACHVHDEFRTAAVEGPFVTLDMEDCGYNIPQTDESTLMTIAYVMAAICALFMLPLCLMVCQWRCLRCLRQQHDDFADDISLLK

melting point [°C]	IC50 [1] [µM]	IC50 [1, 2] [µM]	SMILES
114 to 117		0.11 to 1	CCc1cc(C2(c3cccc(-c4cc(F)ccc4F)c3)N=C(N)N(C)C2=O)cc(C)n1 (centres unmarked) [Example 85]
223 to 225		0.01 to 0.1	CN1C(=O)C(c2cccc(-c3cccnc3)c2)(c2ccnc(Cl)c2)N=C1N (centres unmarked) [Example 89]
176 to 180	0.11 to 1		Cc1cc(C2(c3cccc(-c4cccnc4)c3)N=C(N)N(C)C2=O)cc(C)n1 (centres unmarked) [Example 74]
152 to 157		0.01 to 0.1	CCc1cc(C2(c3cccc(-c4cccnc4)c3)N=C(N)N(C)C2=O)cc(CC)n1 (centres unmarked) [Example 90]
135 to 139		0.11 to 1	CCc1cc(C2(c3cccc(-c4cccnc4)c3)N=C(N)N(C)C2=O)cc(C)n1 (centres unmarked) [Example 83]
184 to 190	0.11 to 1		Cc1cc(C2(c3cccc(-c4cc(F)ccc4F)c3)N=C(N)N(C)C2=O)cc(C)n1 (centres unmarked) [Example 76]
107 to 112		0.11 to 1	CCc1cc(C2(c3cccc(-c4cc(F)ccc4F)c3)N=C(N)N(C)C2=O)cc(CC)n1 (centres unmarked) [Example 92]
193 to 195		> 1	CN1C(=O)C(c2ccncc2)(c2ccc(OC(F)F)cc2)N=C1N (centres unmarked) [Example 112, 2-amino-5-[4-(difluoromethoxy)phenyl]-3-methyl-5-pyridin-4-yl-3,5-dihydro-4H-imidazol-4-one]

More lines, now with the values behind:

SMILES	melting point [°C]	IC50 [1] [µM]	IC50 [1, 2] [µM]
COc1cncc(-c2cccc(C3(c4ccncc4)N=C(N)N(C)C3=O)c2)c1 (centres unmarked) [Example 33]	198 to 200	0.01 to 0.1	
CN1C(=O)C(c2ccncc2)(c2cccc(-c3cccc(O)c3)c2)N=C1N (centres unmarked) [Example 35]	263 to 265	0.11 to 1	
CCc1cc(C2(c3cccc(-c4cccnc4)c3)N=C(N)N(C)C2=O)ccn1 (centres unmarked) [Example 63]	217 to 219	0.01 to 0.1	
CN1C(=O)C(c2ccncc2)(c2cccc(-c3ccn(C)n3)c2)N=C1N (centres unmarked) [Example 48]	199 to 201	0.11 to 1	
CN1C(=O)C(c2ccncc2)(c2cccc(O)c2)N=C1N (centres unmarked) [Example 51, 2-Amino-5-(3-hydroxyphenyl)-3-methyl-5-pyridin-4-yl-3,5-dihydro-4H-imidazol-4-one]	245 to 247		> 1
Cc1cc(C2(c3cccc(-c4cnccn4)c3)N=C(N)N(C)C2=O)ccn1 (centres unmarked) [Example 66]	138 to 141	0.01 to 0.1	
CN1C(=O)C(c2ccncc2)(c2cccc(-c3cc[nH]n3)c2)N=C1N (centres unmarked) [Example 47]	148 to 150	> 1	
CCc1cc(C2(c3cccc(-c4cnccn4)c3)N=C(N)N(C)C2=O)ccn1 (centres unmarked) [Example 67]	138 to 140	0.01 to 0.1	
COc1ccc(F)cc1-c1cccc(C2(c3ccncc3)N=C(N)N(C)C2=O)c1 (centres unmarked) [Example 39]	233 to 235	0.01 to 0.1	
CN1C(=O)C(c2ccncc2)(c2cccc(-c3cc(F)cnc3Cl)c2)N=C1N (centres unmarked) [Example 42]	120 to 122	0.11 to 1	
CN1C(=O)C(c2ccncc2)(c2cccc(OCC3CC3)c2)N=C1N (centres unmarked) [Example 71]	200 to 202	0.11 to 1	
CN1C(=O)C(c2ccncc2)(c2cccc(-c3cccc(C(N)=O)c3)c2)N=C1N (centres unmarked) [Example 37]	188 to 190	0.11 to 1	
CC(=O)c1cccc(-c2cccc(C3(c4ccncc4)N=C(N)N(C)C3=O)c2)c1 (centres unmarked) [Example 38]	218 to 220	0.11 to 1	
COc1ncccc1-c1cccc(C2(c3ccncc3)N=C(N)N(C)C2=O)c1 (centres unmarked) [Example 49]	243 to 245	0.11 to 1	

Source: US7452885B2, “Amino-5-(6-membered)heteroarylimidazolone compounds and the use thereof for β-secretase modulation” (Wyeth, priority 2005, dated 2008)
